Laboratory results: patent US20250066425A1, “POLYPEPTIDE AND APPLICATION THEREOF IN PREPARATION OF ANTI-FIBROSIS DRUG” (priority 2022, published 2025)
Residues, ends and D or L forms follow the SMILES beside them.

Assay: toxic or side effect on mice after injection for several times (serum biochemistry)
Format: in vivo, C57 mice
Description: During sampling of the mice with myocardial infarction modeling for 4 weeks and intramyocardial injection of the polypeptide PAFRK29 for 5 times in Example 6, peripheral blood of the mice was collected into an anticoagulant tube and centrifuged at 1,000 g for 10 minutes. Serum of a supernatant was taken, and levels of blood urea nitrogen (BUN), serum alanine aminotransferase (ALT) and serum aspartate aminotransferase (AST) were determined by an automatic biochemical analyzer.

[1] = myocardial infarction mice, 4 weeks, intramyocardial injection 5 times, vs control group

CC(C)[C@H](NC(=O)[C@@H]1CCCN1C(=O)[C@H](Cc1c[nH]cn1)NC(=O)[C@H](CCCCN)NC(=O)[C@H](Cc1ccc(O)cc1)NC(=O)[C@H](CCC(N)=O)NC(=O)[C@H](CCCNC(=N)N)NC(=O)[C@H](CO)NC(=O)[C@H](Cc1c[nH]cn1)NC(=O)[C@H](Cc1ccccc1)NC(=O)[C@H](Cc1ccc(O)cc1)NC(=O)[C@H](CCC(N)=O)NC(=O)CNC(=O)[C@H](CCC(N)=O)NC(=O)[C@H](Cc1ccccc1)NC(=O)[C@H](CCCNC(=N)N)NC(=O)[C@H](CCCNC(=N)N)NC(=O)[C@H](CCCNC(=N)N)NC(=O)[C@H](CCC(N)=O)NC(=O)[C@H](CCCNC(=N)N)NC(=O)[C@H](CCCNC(=N)N)NC(=O)[C@H](CCCCN)NC(=O)[C@H](CCCCN)NC(=O)[C@@H](N)CCCNC(=N)N)C(=O)NCC(=O)N[C@@H](Cc1ccc(O)cc1)C(=O)N[C@@H](CCC(=O)O)C(=O)NCC(=O)N[C@@H](CCCCN)C(=O)O [PAFRK29] (H-RKKRRQRRRFQGQYFHSRQYKHPVGYEGK-OH; N-terminus and C-terminus assumed)
toxic or side effect on the mice (at an effective anti-fibrosis dose): no obvious toxic or side effect
level of blood urea nitrogen (BUN) [1]: no obvious differences
level of serum alanine aminotransferase (ALT) [1]: no obvious differences
level of serum aspartate aminotransferase (AST) [1]: no obvious differences
